Data on eight compounds can be found in ChEMBL document CHEMBL1154694, “Discovery of a 2,4-diamino-7-aminoalkoxyquinazoline as a potent and selective inhibitor of histone lysine methyltransferase G9a” (J Med Chem, 2009).

For test [1], the target named is T1, Histone-lysine N-methyltransferase EHMT2 (Homo sapiens) (UniProt Q96KQ7).
T1 sequence (whole entry): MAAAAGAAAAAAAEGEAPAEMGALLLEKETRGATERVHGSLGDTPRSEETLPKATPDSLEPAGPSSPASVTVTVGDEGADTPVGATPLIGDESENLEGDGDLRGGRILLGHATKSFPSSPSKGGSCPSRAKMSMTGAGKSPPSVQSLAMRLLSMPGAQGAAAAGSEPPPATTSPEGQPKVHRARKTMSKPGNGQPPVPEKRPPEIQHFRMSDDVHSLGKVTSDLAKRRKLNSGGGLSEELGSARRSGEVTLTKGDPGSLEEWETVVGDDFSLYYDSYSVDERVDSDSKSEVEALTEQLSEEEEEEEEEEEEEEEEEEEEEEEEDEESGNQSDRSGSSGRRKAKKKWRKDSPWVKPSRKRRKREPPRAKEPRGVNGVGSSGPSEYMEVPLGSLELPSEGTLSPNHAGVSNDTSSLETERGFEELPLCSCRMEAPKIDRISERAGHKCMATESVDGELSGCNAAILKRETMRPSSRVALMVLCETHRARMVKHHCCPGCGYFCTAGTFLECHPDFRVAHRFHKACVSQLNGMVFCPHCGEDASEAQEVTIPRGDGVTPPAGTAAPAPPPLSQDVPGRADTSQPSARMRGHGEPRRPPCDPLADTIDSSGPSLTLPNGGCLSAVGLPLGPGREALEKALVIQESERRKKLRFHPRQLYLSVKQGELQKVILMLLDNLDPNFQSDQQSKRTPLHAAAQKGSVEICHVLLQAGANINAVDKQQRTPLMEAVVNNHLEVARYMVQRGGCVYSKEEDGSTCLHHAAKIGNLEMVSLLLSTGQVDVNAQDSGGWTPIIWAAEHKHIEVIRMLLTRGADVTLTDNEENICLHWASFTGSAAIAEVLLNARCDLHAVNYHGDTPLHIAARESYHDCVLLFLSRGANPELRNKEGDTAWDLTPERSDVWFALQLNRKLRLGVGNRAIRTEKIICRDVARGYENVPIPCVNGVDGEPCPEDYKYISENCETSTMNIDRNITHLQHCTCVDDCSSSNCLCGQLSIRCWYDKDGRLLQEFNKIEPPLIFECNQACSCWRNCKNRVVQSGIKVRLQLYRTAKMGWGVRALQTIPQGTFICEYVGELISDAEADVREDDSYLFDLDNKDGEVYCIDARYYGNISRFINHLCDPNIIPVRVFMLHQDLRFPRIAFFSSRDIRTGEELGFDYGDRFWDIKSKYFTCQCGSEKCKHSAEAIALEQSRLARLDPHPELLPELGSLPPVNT
Nature of the test: Inhibition of G9a at 1 uM by Thioglo assay.

Test [2] deals with T2, Histone-lysine N-methyltransferase EHMT2 (Homo sapiens, UniProt Q96KQ7).
T2 sequence (Q96KQ7 whole entry): T1 sequence (whole entry)
Nature of the test: Inhibition of G9a by Alpha screen assay.

Test [3] concerns the target T3, Muscarinic acetylcholine receptor M2 (Homo sapiens) (UniProt P08172).
T3 sequence (whole entry): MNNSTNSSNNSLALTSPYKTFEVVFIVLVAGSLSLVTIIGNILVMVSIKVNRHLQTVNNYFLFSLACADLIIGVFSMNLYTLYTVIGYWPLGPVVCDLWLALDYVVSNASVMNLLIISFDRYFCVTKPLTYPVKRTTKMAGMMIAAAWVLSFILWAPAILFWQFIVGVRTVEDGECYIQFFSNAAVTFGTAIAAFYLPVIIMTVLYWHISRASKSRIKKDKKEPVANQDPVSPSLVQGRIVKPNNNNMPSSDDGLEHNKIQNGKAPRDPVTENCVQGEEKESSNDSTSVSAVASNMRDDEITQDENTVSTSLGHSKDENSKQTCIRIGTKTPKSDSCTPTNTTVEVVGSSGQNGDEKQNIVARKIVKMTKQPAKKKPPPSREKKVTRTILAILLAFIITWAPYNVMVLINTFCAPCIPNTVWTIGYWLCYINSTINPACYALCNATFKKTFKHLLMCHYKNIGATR
Kind of test: Inhibition of muscarinic M2 receptor at 1 uM.

In test [4] the target is Histamine H1 receptor (Homo sapiens) (UniProt P35367). Nature of the test: Inhibition of histamine H1 receptor at 1 uM.
Sequence of Histamine H1 receptor (Homo sapiens) (P35367 whole entry): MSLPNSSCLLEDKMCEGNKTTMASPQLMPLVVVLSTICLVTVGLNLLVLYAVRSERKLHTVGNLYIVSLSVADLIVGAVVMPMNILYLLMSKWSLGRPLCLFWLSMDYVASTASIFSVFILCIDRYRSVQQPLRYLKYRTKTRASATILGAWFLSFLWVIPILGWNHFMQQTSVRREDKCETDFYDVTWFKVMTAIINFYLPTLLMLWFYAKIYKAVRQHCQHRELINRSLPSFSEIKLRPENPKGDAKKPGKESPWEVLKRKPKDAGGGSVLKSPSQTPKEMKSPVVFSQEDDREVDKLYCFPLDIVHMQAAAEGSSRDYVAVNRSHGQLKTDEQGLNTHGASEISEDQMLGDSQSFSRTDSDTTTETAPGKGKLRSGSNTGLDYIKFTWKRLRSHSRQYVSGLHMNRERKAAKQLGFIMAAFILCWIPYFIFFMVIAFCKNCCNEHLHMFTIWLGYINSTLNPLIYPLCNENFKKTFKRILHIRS
The target of test [5] is T2, Histone-lysine N-methyltransferase EHMT2.
Description: Inhibition of G9a by Thioglo assay

`COc1cc2nc(N3CCCN(C)CC3)nc(NC(C)C)c2cc1OC` registered an inhibition in test [1] of less than 30%. Moreover, 5.8 µM corresponded to half-maximal inhibition in test [2] (IC50).
With `COc1cc2c(NC3CCN(C)CC3)nc(N3CCCN(C)CC3)nc2cc1OCCCN(C)C`, the results for the inhibition in test [3] and in test [4] were 82% and 31%, respectively.
The compound `COc1cc2nc(N3CCCN(C)CC3)nc(NC3CCNCC3)c2cc1OC` returned an inhibition in test [1] of less than 30%. In test [2], this compound showed a half-maximal inhibitory concentration (IC50) of more than 10 µM.
As to `COc1cc2nc(Cl)nc(NC3CCN(C)CC3)c2cc1OC`, the inhibition in test [1] is less than 30%. Further, the IC50 in test [2] amounted to 9.1 µM.
On the same counts, the results for `COc1cc2nc(N3CCCN(C)CC3)nc(NC3CCOCC3)c2cc1OC` are less than 30% and more than 10 µM.
As to `COc1cc2nc(N3CCCCC3)nc(NC3CCN(C)CC3)c2cc1OC`, the values for the IC50 in test [2] and in test [5] were 0.51 µM and 0.55 µM, respectively.
On the same counts, the results for `COc1cc2nc(N3CCOCC3)nc(NC3CCN(C)CC3)c2cc1OC` are 0.81 µM and 1.6 µM.
With `COc1cc2nc(N3CCCN(C)CC3)nc(NC3CC3)c2cc1OC`, in test [1], the inhibition is less than 30%. Moreover, in test [2], inhibition was half-maximal at 5.1 µM (IC50).
